Test system: RAW 264.7 cells
Test: Quantitative cell-permeability of FITC-labeled aMTD- or rPeptide-fused CRA recombinant proteins (flow cytometry)
Assay type: cell-based
Details: for Relative Ratio to aMTD AVE: cell-permeability of rPeptide-fused CRA recombinant protein relative to average of 240 aMTDs
Excerpt: The aMTDs and rPeptides were fluorescently labeled and compared based on the critical factors for cell-permeability by using flow cytometry and confocal laser scanning microscopy (FIGS. 5 to 8). The cellular uptake of the peptide-fused non-functional cargo recombinant proteins could quantitatively be evaluated in flow cytometry, while confocal laser scanning microscopy allows intracellular uptake to be assessed visually. The analysis included recombinant proteins fused to a negative control [rP38] that has opposite characteristics (hydrophilic and aromatic sequence: […] NO: 952)) to the aMTDs (hydrophobic and aliphatic sequences). Relative cell-permeability (relative fold) of aMTDs to the negative control was also analyzed (Table 23 and FIG. 9). […] RAW 264.7 cells were treated with 10 μM FITC-labeled recombinant proteins for 1 hour at 37° C., washed three times with cold PBS, treated with 0.25% tripsin/EDTA (Sigma-Aldrich, St. Louis, Mo.) for 20 minutes at 37° C. to remove cell-surface bound proteins. Cell-permeability of these recombinant proteins were analyzed by flow cytometry (Guava, Millipore, Darmstadt, Germany) using the FlowJo cytometric analysis software (FIGS. 5 to 6).

[1] = cell-permeability of aMTD-fused CRA recombinant protein relative to negative control (A: rP38)
[2] = cell-permeability of aMTD-fused CRA recombinant protein relative to reference CPP (B: MTM12)
[3] = cell-permeability of aMTD-fused CRA recombinant protein relative to reference CPP (C: MTD85)
[4] = cell-permeability relative to negative control rP38 (A type), aMTD-fused CRA recombinant protein, 10 μM FITC-labeled, 1 hour, 37° C., RAW 264.7 cells
[5] = cell-permeability relative to reference CPP MTD85 (C type), aMTD-fused CRA recombinant protein, 10 μM FITC-labeled, 1 hour, 37° C., RAW 264.7 cells
[6] = cell-permeability relative to reference CPP MTM12 (B type), aMTD-fused CRA recombinant protein, 10 μM FITC-labeled, 1 hour, 37° C., RAW 264.7 cells
[7] = 10 μM FITC-labeled, 1 hour, 37° C., RAW 264.7 cells

In the case of “282 (VLAVAPALIVAP; Amino acid Sequence of aMTD282) [compound 282]”, the “Relative Ratio (Fold) A” value [1] is reported as 11.8 Fold, the “Relative Ratio (Fold) B” value [2] is reported as 7.9 Fold and the “Relative Ratio (Fold) C” value [3] is reported as 4.0 Fold.

“283 (AALLAPALIVAP; Amino acid Sequence of aMTD283) [compound 283]” was tested, and the “Relative Ratio (Fold) A” value [4] was 3.1 Fold, the “Relative Ratio (Fold) C” value [5] was 1.0 Fold and the “Relative Ratio (Fold) B” value [6] was 2.0 Fold.

With “284 (ALIAPAVALIVP; Amino acid Sequence of aMTD284) [compound 284]” the “Relative Ratio (Fold) A” value [4] was 2.8 Fold, the “Relative Ratio (Fold) C” value [5] was 0.9 Fold and the “Relative Ratio (Fold) B” value [6] was 1.8 Fold.

For “285 (AIVLLPAAVVAP; Amino acid Sequence of aMTD285) [compound 285]”, the “Relative Ratio (Fold) A” value [1] was 13.3 Fold, the “Relative Ratio (Fold) B” value [2] was 9.9 Fold and the “Relative Ratio (Fold) C” value [3] was 4.5 Fold.

“301 (VIAAPVLAVLAP; Amino acid Sequence of aMTD301) [compound 301]” was tested, and the “Relative Ratio (Fold) A” value [4] was 6.0 Fold, the “Relative Ratio (Fold) C” value [5] was 2.0 Fold and the “Relative Ratio (Fold) B” value [6] was 4.0 Fold.

“302 (LALAPALALLAP; Amino acid Sequence of aMTD302) [compound 302]” was tested, and the “Relative Ratio (Fold) A” value [1] was 10.2 Fold, the “Relative Ratio (Fold) B” value [2] was 6.8 Fold and the “Relative Ratio (Fold) C” value [3] was 3.4 Fold.

With “304 (AIILAPIAAIAP; Amino acid Sequence of aMTD304) [compound 304]” the “Relative Ratio (Fold) A” value [4] was 4.4 Fold, the “Relative Ratio (Fold) C” value [5] was 1.5 Fold and the “Relative Ratio (Fold) B” value [6] was 3.0 Fold.

For “305 (IALAAPILLAAP; Amino acid Sequence of aMTD305) [compound 305]”, the “Relative Ratio (Fold) A” value [4] was 4.8 Fold, the “Relative Ratio (Fold) C” value [5] was 1.6 Fold and the “Relative Ratio (Fold) B” value [6] was 3.2 Fold.

For “312 (VALLAPAVVVAP; Amino acid Sequence of aMTD912) [compound 312]”, the “Relative Ratio (Fold) A” value [1] was 19.9 Fold, the “Relative Ratio (Fold) B” value [2] was 13.3 Fold and the “Relative Ratio (Fold) C” value [3] was 6.7 Fold.

“321 (IVAVALPALAVP; Amino acid Sequence of aMTD321) [compound 321]” was tested, and the “Relative Ratio (Fold) A” value [1] was 97.8 Fold, the “Relative Ratio (Fold) B” value [2] was 65.2 Fold and the “Relative Ratio (Fold) C” value [3] was 32.9 Fold.

For “322 (VVAIVLPALAAP; Amino acid Sequence of aMTD322) [compound 322]”, the “Relative Ratio (Fold) A” value [1] was 17.6 Fold, the “Relative Ratio (Fold) B” value [2] was 11.7 Fold and the “Relative Ratio (Fold) C” value [3] was 5.9 Fold.

For “323 (IVAVALPVALAP; Amino acid Sequence of aMTD323) [compound 323]”, the “Relative Ratio (Fold) A” value [1] was 19.1 Fold, the “Relative Ratio (Fold) B” value [2] was 12.8 Fold and the “Relative Ratio (Fold) C” value [3] was 6.4 Fold.

For “324 (IVAVALPAALVP; Amino acid Sequence of aMTD324) [compound 324]”, the “Relative Ratio (Fold) A” value [1] was 10.3 Fold, the “Relative Ratio (Fold) B” value [2] was 6.9 Fold and the “Relative Ratio (Fold) C” value [3] was 3.5 Fold. For the same substance, the “Relative Ratio (Fold) A” value (relative cell-permeability of aMTD vs reference A (not defined)) was 10.3 Fold, the “Relative Ratio (Fold) B” value (relative cell-permeability of aMTD vs reference CPP B: MTM12) was 6.9 Fold and the “Relative Ratio (Fold) C” value (relative cell-permeability of aMTD vs reference CPP C: MTD85) was 3.5 Fold.

In the case of “325 (IVAVALPAVALP; Amino acid Sequence of aMTD325) [compound 325]”, the “Relative Ratio (Fold) A” value [1] is reported as 11.7 Fold, the “Relative Ratio (Fold) B” value [2] is reported as 7.8 Fold and the “Relative Ratio (Fold) C” value [3] is reported as 4.0 Fold.

For “329 (LPVLVPVVPVVP; Amino acid Sequence of rPeptide ID 329) [compound 329]”, the “Relative Ratio to aMTD AVE” value [7] was 0.23.

In the case of “341 (IVAVALPAVLAP; Amino acid Sequence of aMTD341) [compound 341]”, the “Relative Ratio (Fold) A” value [1] is reported as 16.4 Fold, the “Relative Ratio (Fold) B” value [2] is reported as 10.9 Fold and the “Relative Ratio (Fold) C” value [3] is reported as 5.5 Fold.

“342 (VIVALAPAVLAP; Amino acid Sequence of aMTD342) [compound 342]” was tested, and the “Relative Ratio (Fold) A” value [1] was 12.7 Fold, the “Relative Ratio (Fold) B” value [2] was 8.5 Fold and the “Relative Ratio (Fold) C” value [3] was 4.3 Fold.

“343 (IVAVALPALVAP; Amino acid Sequence of aMTD343) [compound 343]” was tested, and the “Relative Ratio (Fold) A” value [1] was 19.4 Fold, the “Relative Ratio (Fold) B” value [2] was 12.9 Fold and the “Relative Ratio (Fold) C” value [3] was 6.5 Fold.

For “345 (ALLIVAPVAVAP; Amino acid Sequence of aMTD345) [compound 345]”, the “Relative Ratio (Fold) A” value [1] was 8.9 Fold, the “Relative Ratio (Fold) B” value [2] was 5.9 Fold and the “Relative Ratio (Fold) C” value [3] was 3.0 Fold.

“361 (AVVIVAPAVIAP; Amino acid Sequence of aMTD361) [compound 361]” was tested, and the “Relative Ratio (Fold) A” value [1] was 16.0 Fold, the “Relative Ratio (Fold) B” value [2] was 10.7 Fold and the “Relative Ratio (Fold) C” value [3] was 5.4 Fold.

In the case of “364 (LVAAVAPALIVP; Amino acid Sequence of aMTD364) [compound 364]”, the “Relative Ratio (Fold) A” value [4] is reported as 6.5 Fold, the “Relative Ratio (Fold) C” value [5] is reported as 2.2 Fold and the “Relative Ratio (Fold) B” value [6] is reported as 4.3 Fold.

For “365 (AVIVVAPALLAP; Amino acid Sequence of aMTD365) [compound 365]”, the “Relative Ratio (Fold) A” value [1] was 9.3 Fold, the “Relative Ratio (Fold) B” value [2] was 6.2 Fold and the “Relative Ratio (Fold) C” value [3] was 3.1 Fold. For the same substance, the “Relative Ratio (Fold) A” value [4] was 9.3 Fold, the “Relative Ratio (Fold) C” value [5] was 3.1 Fold and the “Relative Ratio (Fold) B” value [6] was 6.2 Fold.

“382 (AAALVIPAILAP; Amino acid Sequence of aMTD382) [compound 382]” was tested, and the “Relative Ratio (Fold) A” value [1] was 17.7 Fold, the “Relative Ratio (Fold) B” value [2] was 11.8 Fold and the “Relative Ratio (Fold) C” value [3] was 6.0 Fold.

In the case of “383 (VIVALAPALLAP; Amino acid Sequence of aMTD383) [compound 383]”, the “Relative Ratio (Fold) A” value [1] is reported as 11.6 Fold, the “Relative Ratio (Fold) B” value [2] is reported as 7.7 Fold and the “Relative Ratio (Fold) C” value [3] is reported as 3.9 Fold.

In the case of “384 (VIVAIAPALLAP; Amino acid Sequence of aMTD384) [compound 384]”, the “Relative Ratio (Fold) A” value [1] is reported as 14.0 Fold, the “Relative Ratio (Fold) B” value [2] is reported as 9.4 Fold and the “Relative Ratio (Fold) C” value [3] is reported as 4.7 Fold.

For “385 (IVAIAVPALVAP; Amino acid Sequence of aMTD385) [compound 385]”, the “Relative Ratio (Fold) A” value [1] was 38.8 Fold, the “Relative Ratio (Fold) B” value [2] was 25.9 Fold and the “Relative Ratio (Fold) C” value [3] was 13.1 Fold.

In the case of “390 (VPLLVPVVPVVP; Amino acid Sequence of rPeptide ID 390) [compound 390]”, the “Relative Ratio to aMTD AVE” value [7] is reported as 0.41.

In the case of “391 (VVAIVLPAVAAP; Amino acid Sequence of aMTD381) [compound 391]”, the “Relative Ratio (Fold) A” value [1] is reported as 11.5 Fold, the “Relative Ratio (Fold) B” value [2] is reported as 7.7 Fold and the “Relative Ratio (Fold) C” value [3] is reported as 3.9 Fold.

For “401 (AALAVIPAAILP; Amino acid Sequence of aMTD401) [compound 401]”, the “Relative Ratio (Fold) A” value [1] was 10.6 Fold, the “Relative Ratio (Fold) B” value [2] was 7.1 Fold and the “Relative Ratio (Fold) C” value [3] was 3.6 Fold.

With “402 (ALAAVIPAAILP; Amino acid Sequence of aMTD402) [compound 402]” the “Relative Ratio (Fold) A” value [4] was 6.4 Fold, the “Relative Ratio (Fold) C” value [5] was 2.2 Fold and the “Relative Ratio (Fold) B” value [6] was 4.3 Fold.

In the case of “403 (AAALVIPAAILP; Amino acid Sequence of aMTD403) [compound 403]”, the “Relative Ratio (Fold) A” value [1] is reported as 25.2 Fold, the “Relative Ratio (Fold) B” value [2] is reported as 16.8 Fold and the “Relative Ratio (Fold) C” value [3] is reported as 8.5 Fold.

“404 (LAAAVIPAAILP; Amino acid Sequence of aMTD404) [compound 404]” was tested, and the “Relative Ratio (Fold) A” value [1] was 18.9 Fold, the “Relative Ratio (Fold) B” value [2] was 12.6 Fold and the “Relative Ratio (Fold) C” value [3] was 6.4 Fold.

“405 (LAAAVIPVAILP; Amino acid Sequence of aMTD405) [compound 405]” was tested, and the “Relative Ratio (Fold) A” value [1] was 22.2 Fold, the “Relative Ratio (Fold) B” value [2] was 14.8 Fold and the “Relative Ratio (Fold) C” value [3] was 7.5 Fold.

For “421 (AAILAAPLIAVP; Amino acid Sequence of aMTD421) [compound 421]”, the “Relative Ratio (Fold) A” value [4] was 6.7 Fold, the “Relative Ratio (Fold) C” value [5] was 2.3 Fold and the “Relative Ratio (Fold) B” value [6] was 4.5 Fold.

In the case of “422 (VVAILAPLLAAP; Amino acid Sequence of aMTD422) [compound 422]”, the “Relative Ratio (Fold) A” value [1] is reported as 19.6 Fold, the “Relative Ratio (Fold) B” value [2] is reported as 13.1 Fold and the “Relative Ratio (Fold) C” value [3] is reported as 6.6 Fold.

For “424 (AVVVAAPVLALP; Amino acid Sequence of aMTD424) [compound 424]”, the “Relative Ratio (Fold) A” value [4] was 6.6 Fold, the “Relative Ratio (Fold) C” value [5] was 2.2 Fold and the “Relative Ratio (Fold) B” value [6] was 4.4 Fold.

In the case of “425 (AVVAIAPVLALP; Amino acid Sequence of aMTD425) [compound 425]”, the “Relative Ratio (Fold) A” value [1] is reported as 9.4 Fold, the “Relative Ratio (Fold) B” value [2] is reported as 6.3 Fold and the “Relative Ratio (Fold) C” value [3] is reported as 3.2 Fold.

For “426 (AAALAIPLAIIP; Amino acid Sequence of rPeptide ID 426) [compound 426]”, the “Relative Ratio to aMTD AVE” value [7] was 0.40.

With “442 (ALAALVPAVLVP; Amino acid Sequence of aMTD442) [compound 442]” the “Relative Ratio (Fold) A” value [1] was 20.4 Fold, the “Relative Ratio (Fold) B” value [2] was 12.6 Fold and the “Relative Ratio (Fold) C” value [3] was 6.9 Fold.

In the case of “443 (ALAALVPVALVP; Amino acid Sequence of aMTD443) [compound 443]”, the “Relative Ratio (Fold) A” value [1] is reported as 8.0 Fold, the “Relative Ratio (Fold) B” value [2] is reported as 5.3 Fold and the “Relative Ratio (Fold) C” value [3] is reported as 2.7 Fold.

— patent US10385103B2, “Cell-permeable (ICP)-SOCS3 recombinant protein and uses thereof” (CELLIVERY THERAPEUTICS, INC., priority 2014, dated 2019)
